From US6355799B1, “Substituted benzene compounds, process for their preparation, and herbicidal and defoliant compositions containing them” (ISK Americas Incorporated, priority 1997, dated 2002)

Columns and labels:
Assay type in all cases: in vivo
[1] = tested on: velvetleaf (Abutilon theophrasti, ABUTH); assay: Pre-emerge test, greenhouse herbicide activity screening
In short: (§1)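 Applied at 15–1000 g ai/ha from acetone in 187 l/ha spray volume. Post-emergence applications included 0.25% v/v non-ionic surfactant and reached plants sown 8–21 days before. Pre-emergence applications were incorporated by surface watering. Efficacy or crop damage was rated on a 0–100 scale after 14 days.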

[2] = tested on: sicklepod (Cassia obtusifolia, CASOB); assay: as above
In short: as §1

[3] = tested on: barnyardgrass (Echinochloa crus-galli, ECHCG); assay: as above
In short: as §1

[4] = tested on: large crabgrass (Digitaria sanguinalis, DIGSA); assay: as above
In short: as §1

[5] = tested on: green foxtail (Setaria viridis, SETVI); assay: as above
In short: as §1

[6] = tested on: lambsquarters (Chenopodium album, CHEAL); assay: as above
In short: as §1

[7] = tested on: ivyleaf morningglory (Ipomoea hederacea, IPOHE); assay: as above
In short: as §1

[8] = tested on: upland rice (Oryza sp., var. Tebonnet, RICE); assay: Pre-emerge test, crop safety
In short: (§2)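 Herbicidal damage is scored 0 (none) to 100 (complete plant death) two weeks after a simulated field spray. Rates span 15–1000 g ai/ha, delivered in acetone at 187 l/ha. For post-emergence treatments, plants have 2–3 leaves and the spray carries 0.25% v/v non-ionic surfactant.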

[9] = tested on: field corn (Zea mays L., var. Dekalb 535, CORN); assay: Pre-emerge test, crop safety
In short: as §2

[10] = tested on: upland rice (Oryza sp., var. Tebonnet, RICE); assay: Post-emerge test, crop safety; settings: post-emerge; for phytotoxicity rating RICE (crop damage): 14 days after application, rating scale 0-100; for Post-emerge Herbicidal Activity RICE: crop damage rating 0-100 at 14 days after application
In short: as §1

[11] = tested on: field corn (Zea mays L., var. Dekalb 535, CORN); assay: Post-emerge test, crop safety; settings: post-emerge; for phytotoxicity rating CORN (crop damage): 14 days after application, rating scale 0-100; for Post-emerge Herbicidal Activity CORN: crop damage rating 0-100 at 14 days after application
In short: as §1

[12] = tested on: velvetleaf (Abutilon theophrasti, ABUTH); assay: Post-emerge test, greenhouse herbicide activity screening; settings: post-emerge; for phytotoxicity rating ABUTH: 14 days after application, rating scale 0-100; for Post-emerge Herbicidal Activity ABUTH: phytotoxicity rating 0-100 at 14 days after application
In short: (§3)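 Compounds in acetone were track-sprayed at 15-1000 g ai/ha (187 l/ha) on sandy loam pots: pre-emerge one day after seeding, post-emerge at 2-3 leaf stage with 0.25% v/v non-ionic surfactant. Phytotoxicity was rated 14 days later on a 0 (no damage) to 100 (complete death) scale.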

[13] = tested on: sicklepod (Cassia obtusifolia, CASOB); assay: as above; settings: post-emerge; for phytotoxicity rating CASOB: 14 days after application, rating scale 0-100; for Post-emerge Herbicidal Activity CASOB: phytotoxicity rating 0-100 at 14 days after application
In short: as §3

[14] = tested on: johnsongrass (Sorghum halepense, SORHA); assay: as above; settings: post-emerge; for phytotoxicity rating SORHA: 14 days after application, rating scale 0-100; for Post-emerge Herbicidal Activity SORHA: phytotoxicity rating 0-100 at 14 days after application
In short: as §3

[15] = tested on: barnyardgrass (Echinochloa crus-galli, ECHCG); assay: as above; settings: post-emerge; for phytotoxicity rating ECHCG: 14 days after application, rating scale 0-100; for Post-emerge Herbicidal Activity ECHCG: phytotoxicity rating 0-100 at 14 days after application
In short: as §3

[16] = tested on: large crabgrass (Digitaria sanguinalis, DIGSA); assay: as above; settings: post-emerge; for phytotoxicity rating DIGSA: 14 days after application, rating scale 0-100; for Post-emerge Herbicidal Activity DIGSA: phytotoxicity rating 0-100 at 14 days after application
In short: as §3

[17] = tested on: green foxtail (Setaria viridis, SETVI); assay: as above; settings: post-emerge; for phytotoxicity rating SETVI: 14 days after application, rating scale 0-100; for Post-emerge Herbicidal Activity SETVI: phytotoxicity rating 0-100 at 14 days after application
In short: as §3

[18] = tested on: redroot pigweed (Amaranthus retroflexus, AMARE); assay: as above; settings: post-emerge; for phytotoxicity rating AMARE: 14 days after application; for Post-emerge Herbicidal Activity AMARE: phytotoxicity rating 0-100 at 14 days after application
In short: as §3

[19] = tested on: lambsquarters (Chenopodium album, CHEAL); assay: as above; settings: post-emerge; for phytotoxicity rating CHEAL: 14 days after application, rating scale 0-100; for Post-emerge Herbicidal Activity CHEAL: phytotoxicity rating 0-100 at 14 days after application
In short: as §3

[20] = tested on: ivyleaf morningglory (Ipomoea hederacea, IPOHE); assay: as above; settings: post-emerge; for phytotoxicity rating IPOHE: 14 days after application, rating scale 0-100; for Post-emerge Herbicidal Activity IPOHE: phytotoxicity rating 0-100 at 14 days after application
In short: as §3

[21] = tested on: redroot pigweed (Amaranthus retroflexus, AMARE); assay: Pre-emerge test, greenhouse herbicide activity screening
In short: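 Visual ratings on a 0-100 scale (0 no damage, 100 all plants dead) were taken at 14 days after treatment. Rates of 15-1000 g ai/ha in acetone, 187 l/ha, were sprayed onto soil one day after planting (pre-emerge) or onto 2-3 leaf plants with 0.25% v/v surfactant (post-emerge).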

[22] = 63 g ai/ha, phytotoxicity rating 0-100, 14 days after application
[23] = 250 g ai/ha, phytotoxicity rating 0-100, 14 days after application
[24] = 63 g ai/ha, crop damage rating 0-100, 14 days after application
[25] = 250 g ai/ha, crop damage rating 0-100, 14 days after application
[26] = pre-emerge, rate 63 g ai/ha, phytotoxicity rating 0-100 at 14 days after application
[27] = pre-emerge, rate 250 g ai/ha, phytotoxicity rating 0-100 at 14 days after application
[28] = crop damage, pre-emerge, rate 63 g ai/ha, phytotoxicity rating 0-100 at 14 days after application
[29] = crop damage, pre-emerge, rate 250 g ai/ha, phytotoxicity rating 0-100 at 14 days after application

With `COc1c(Cl)cc(F)c(-n2c(=O)cc(C(F)(F)F)n(C)c2=O)c1NC(=O)OCc1cc(C)cc(C)c1` [4-37] the “Pre-emerge Herbicidal Activity ABUTH” value [1, 22] was 100, the “Pre-emerge Herbicidal Activity ABUTH” value [1, 23] was 90 and the “Pre-emerge Herbicidal Activity CASOB” value [2, 22] was 30. The “Pre-emerge Herbicidal Activity CASOB” value [2, 23] was 40, the “Pre-emerge Herbicidal Activity ECHCG” value [3, 22] was 10 and the “Pre-emerge Herbicidal Activity ECHCG” value [3, 23] was 60. For the same molecule, the “Pre-emerge Herbicidal Activity DIGSA” value [4, 22] was 60, the “Pre-emerge Herbicidal Activity DIGSA” value [4, 23] was 90 and the “Pre-emerge Herbicidal Activity SETVI” value [5, 22] was 90. For the same molecule, the “Pre-emerge Herbicidal Activity SETVI” value [5, 23] was 100, the “Pre-emerge Herbicidal Activity CHEAL” value [6, 22] was 100 and the “Pre-emerge Herbicidal Activity CHEAL” value [6, 23] was 100. For the same molecule, the “Pre-emerge Herbicidal Activity IPOHE” value [7, 22] was 30, the “Pre-emerge Herbicidal Activity IPOHE” value [7, 23] was 50 and the “Pre-emerge Herbicidal Activity RICE” value [8, 24] was 10. For the same molecule, the “Pre-emerge Herbicidal Activity RICE” value [8, 25] was 30, the “Pre-emerge Herbicidal Activity CORN” value [9, 24] was 0 and the “Pre-emerge Herbicidal Activity CORN” value [9, 25] was 0. For the same molecule, the “phytotoxicity rating RICE (crop damage)” value ([10]; 63 g ai/ha) was 10, the “phytotoxicity rating RICE (crop damage)” value ([10]; 250 g ai/ha) was 60 and the “phytotoxicity rating CORN (crop damage)” value ([11]; 63 g ai/ha) was 20. The “phytotoxicity rating CORN (crop damage)” value ([11]; 250 g ai/ha) was 60, the “phytotoxicity rating ABUTH” value ([12]; 63 g ai/ha) was 100 and the “phytotoxicity rating ABUTH” value ([12]; 250 g ai/ha) was 100. The “phytotoxicity rating CASOB” value ([13]; 63 g ai/ha) was 90, the “phytotoxicity rating CASOB” value ([13]; 250 g ai/ha) was 100 and the “phytotoxicity rating SORHA” value ([14]; 63 g ai/ha) was 40. The “phytotoxicity rating SORHA” value ([14]; 250 g ai/ha) was 60, the “phytotoxicity rating ECHCG” value ([15]; 63 g ai/ha) was 20 and the “phytotoxicity rating ECHCG” value ([15]; 250 g ai/ha) was 60. For the same molecule, the “phytotoxicity rating DIGSA” value ([16]; 63 g ai/ha) was 50, the “phytotoxicity rating DIGSA” value ([16]; 250 g ai/ha) was 70 and the “phytotoxicity rating SETVI” value ([17]; 63 g ai/ha) was 90. The “phytotoxicity rating SETVI” value ([17]; 250 g ai/ha) was 90, the “phytotoxicity rating AMARE” value ([18]; 63 g ai/ha, rating scale 0-100 (0 no damage, 100 complete death)) was 100 and the “phytotoxicity rating AMARE” value ([18]; 250 g ai/ha, rating scale 0-100) was 100. The “phytotoxicity rating CHEAL” value ([19]; 63 g ai/ha) was 100, the “phytotoxicity rating CHEAL” value ([19]; 250 g ai/ha) was 100 and the “phytotoxicity rating IPOHE” value ([20]; 63 g ai/ha) was 100. The “phytotoxicity rating IPOHE” value ([20]; 250 g ai/ha) was 100, the “Pre-emerge Herbicidal Activity AMARE” value [21, 22] was 100 and the “Pre-emerge Herbicidal Activity AMARE” value [21, 23] was 100.
With `COc1cccc(COC(=O)Nc2c(C)c(Cl)cc(F)c2-n2c(=O)cc(C(F)(F)F)n(C)c2=O)c1` [4-65] the “Pre-emerge Herbicidal Activity ABUTH” value [1, 26] was 100, the “Pre-emerge Herbicidal Activity ABUTH” value [1, 27] was 100 and the “Pre-emerge Herbicidal Activity CASOB” value [2, 26] was 80. The “Pre-emerge Herbicidal Activity CASOB” value [2, 27] was 90, the “Pre-emerge Herbicidal Activity ECHCG” value [3, 26] was 80 and the “Pre-emerge Herbicidal Activity ECHCG” value [3, 27] was 90. The “Pre-emerge Herbicidal Activity DIGSA” value [4, 26] was 100, the “Pre-emerge Herbicidal Activity DIGSA” value [4, 27] was 100 and the “Pre-emerge Herbicidal Activity SETVI” value [5, 26] was 100. For the same molecule, the “Pre-emerge Herbicidal Activity SETVI” value [5, 27] was 100, the “Pre-emerge Herbicidal Activity CHEAL” value [6, 26] was 100 and the “Pre-emerge Herbicidal Activity CHEAL” value [6, 27] was 100. The “Pre-emerge Herbicidal Activity IPOHE” value [7, 26] was 90, the “Pre-emerge Herbicidal Activity IPOHE” value [7, 27] was 100 and the “Pre-emerge Herbicidal Activity RICE” value [8, 28] was 65. The “Pre-emerge Herbicidal Activity RICE” value [8, 29] was 90, the “Pre-emerge Herbicidal Activity CORN” value [9, 28] was 55 and the “Pre-emerge Herbicidal Activity CORN” value [9, 29] was 75. The “Post-emerge Herbicidal Activity RICE” value ([10]; 63 g ai/ha) was 70, the “Post-emerge Herbicidal Activity RICE” value ([10]; 250 g ai/ha) was 80 and the “Post-emerge Herbicidal Activity CORN” value ([11]; 63 g ai/ha) was 80. The “Post-emerge Herbicidal Activity CORN” value ([11]; 250 g ai/ha) was 90, the “Post-emerge Herbicidal Activity ABUTH” value ([12]; 63 g ai/ha) was 100 and the “Post-emerge Herbicidal Activity ABUTH” value ([12]; 250 g ai/ha) was 100. For the same molecule, the “Post-emerge Herbicidal Activity CASOB” value ([13]; 63 g ai/ha) was 100, the “Post-emerge Herbicidal Activity CASOB” value ([13]; 250 g ai/ha) was 100 and the “Post-emerge Herbicidal Activity SORHA” value ([14]; 63 g ai/ha) was 70. The “Post-emerge Herbicidal Activity SORHA” value ([14]; 250 g ai/ha) was 80, the “Post-emerge Herbicidal Activity ECHCG” value ([15]; 63 g ai/ha) was 60 and the “Post-emerge Herbicidal Activity ECHCG” value ([15]; 250 g ai/ha) was 70. For the same molecule, the “Post-emerge Herbicidal Activity DIGSA” value ([16]; 63 g ai/ha) was 60, the “Post-emerge Herbicidal Activity DIGSA” value ([16]; 250 g ai/ha) was 80 and the “Post-emerge Herbicidal Activity SETVI” value ([17]; 63 g ai/ha) was 100. The “Post-emerge Herbicidal Activity SETVI” value ([17]; 250 g ai/ha) was 100, the “Post-emerge Herbicidal Activity AMARE” value ([18]; 63 g ai/ha) was 100 and the “Post-emerge Herbicidal Activity AMARE” value ([18]; 250 g ai/ha) was 100. The “Post-emerge Herbicidal Activity CHEAL” value ([19]; 63 g ai/ha) was 100, the “Post-emerge Herbicidal Activity CHEAL” value ([19]; 250 g ai/ha) was 100 and the “Post-emerge Herbicidal Activity IPOHE” value ([20]; 63 g ai/ha) was 100. For the same molecule, the “Post-emerge Herbicidal Activity IPOHE” value ([20]; 250 g ai/ha) was 100, the “Pre-emerge Herbicidal Activity AMARE” value [21, 26] was 100 and the “Pre-emerge Herbicidal Activity AMARE” value [21, 27] was 100.
